According to patent US9006294B2, “Oral pharmaceutical formulation of pelubiprofen with improved dissolution rate and stability” (Daewon Pharm., Co., Ltd., priority 2008, dated 2015):

How the values were obtained:
[1] = Dissolution test of pelubiprofen tablets, Paddle Method of Korean Pharmacopoeia; type: physicochemical
Source text: In accordance with the present invention, mean particle size of pelubiprofen preferably ranges from 1 to 30 μm. For example, pelubiprofen particles are difficult to prepare when less than 1 μm in mean particle size, although their dissolution rate increases thanks to the increased surface area thereof. On the other hand, pelubiprofen particles exceeding 30 μm in size have a decreased dissolution rate.
Pelubiprofen tablets differing in the mean particle size of pelubiprofen and the kinds and content of additives were measured for dissolution rate as follows.
A dissolution test was performed on the pelubiprofen tablets prepared in Examples 1 to 20 and Comparative Examples 1 to 18.
The dissolution test was performed according to the procedure of Paddle Method described in Korean Pharmacopoeia. In this regard, one tablet was tested in 900 mL of a dissolution medium (pH 1.2) at 37±0.5° C., with a maintenance of paddle rotation speed at 50 rpm. After a 45-min test, the dissolution medium was taken and filtered through a 0.45 μm filter, followed by the UV analysis of the filtrate.

[2] = Related compounds in pelubiprofen combined with single additives, stored two weeks at 60° C.; type: physicochemical; conditions: pelubiprofen 20 mg plus additive
Procedure: Increased amounts of related compounds were measured after oral pharmaceutical formulations with different mean particle sizes (27.4 μm, 45.6 μm) of pelubiprofen in combination with different amounts of various additives were stored for two weeks under the severe condition of 60° C.

dissolution rate ([1]; mean particle size of pelubiprofen 9.3 μm): 85.8%
dissolution rate ([1]; mean particle size of pelubiprofen 19.1 μm): 75.3%
dissolution rate ([1]; mean particle size of pelubiprofen 27.4 μm): 70.4%
dissolution rate ([1]; mean particle size of pelubiprofen 45.6 μm): 41.4%
Increase of Related Cpd. ([2]; MPS of pelubiprofen 27.4 μm): 9.5%
Total Related Cpd. ([2]; MPS of pelubiprofen 27.4 μm): 0.461%
Increase of Related Cpd. ([2]; MPS of pelubiprofen 45.6 μm): 2.6%
Total Related Cpd. ([2]; MPS of pelubiprofen 45.6 μm): 0.432%
Compound: CC(C(=O)O)c1ccc(/C=C2\CCCCC2=O)cc1 (centres unmarked) [pelubiprofen, 2-[4-(2-oxocyclohexylidenemethyl)phenyl]propionic acid]
